ChEMBL document CHEMBL1153923, “Carbonic anhydrase inhibitors. Inhibition of human erythrocyte isozymes I and II with a series of antioxidant phenols” (Bioorg Med Chem, 2009)

Assays:
Carbonic anhydrase 1 = Carbonic anhydrase 1 (Homo sapiens, UniProt P00915); experiment: Inhibition of human erythrocyte CA1 esterase activity using 4-nitrophenyl acetate substrate
Carbonic anhydrase 2 = Carbonic anhydrase 2 (Homo sapiens, UniProt P00918)
Description: Inhibition of human erythrocyte CA2 esterase activity using 4-nitrophenyl acetate substrate

Chain of Carbonic anhydrase 1 (P00915 whole entry): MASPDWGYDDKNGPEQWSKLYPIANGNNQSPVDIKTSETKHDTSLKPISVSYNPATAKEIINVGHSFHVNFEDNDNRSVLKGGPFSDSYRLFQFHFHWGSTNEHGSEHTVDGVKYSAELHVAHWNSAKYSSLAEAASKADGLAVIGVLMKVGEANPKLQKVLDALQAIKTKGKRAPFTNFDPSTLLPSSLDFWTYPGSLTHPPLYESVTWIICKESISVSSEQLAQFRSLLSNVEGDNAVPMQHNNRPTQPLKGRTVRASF

SMILES	Ki (Carbonic anhydrase 1)	Ki (Carbonic anhydrase 2)
CC(C)(C)c1cc(-c2cc(C(C)(C)C)c(O)c(C(C)(C)C)c2)cc(C(C)(C)C)c1O	37.5 µM	–
CC(C)(C)c1cccc(C(C)(C)C)c1O	275 µM	–
Cc1cccc(C)c1O	198 µM	113 µM
Cc1cc(C(C)(C)C)c(O)c(C(C)(C)C)c1 [BUTYLATED HYDROXYTOLUENE]	245 µM	0.63 µM
CC(C)c1cccc(C(C)C)c1O [PROPOFOL]	98.9 µM	19.5 µM

Continued by falling Ki (Carbonic anhydrase 1), values first:

Ki (Carbonic anhydrase 1)	Ki (Carbonic anhydrase 2)	SMILES
92.8 µM	4.05 µM	Cc1cc(-c2cc(C)c(O)c(C)c2)cc(C)c1O
63.7 µM	–	COc1cc(C(C)(C)C)c(O)c(C(C)(C)C)c1
60.2 µM	2.94 µM	COc1ccccc1O [GUAIACOL]
55.6 µM	–	COc1c(O)cccc1C=O
37.9 µM	–	CC(C)c1cc(-c2cc(C(C)C)c(O)c(C(C)C)c2)cc(C(C)C)c1O
